Measurements reported in patent US10253081B2, “Glucagon analogues” (Zealand Pharma A/S, priority 2012, dated 2019).
*1 amine or outer side, *2 acyl side, *3 side chain or, on linkers, in order; H or OH if unused. Where a SMILES comes first, the peptide text is derived from it. Side-chain parts run from the residue outwards. [ ]: non-standard residue; d: D form. The star is where a group is joined. γGlu = O=C(O)[C@H](CCC(=O)[*:2])N[*:1]; Palmitoyl = CCCCCCCCCCCCCCCC(=O)*; Aib = CC(C)(N)C(=O)O

Assay: Sub-chronic effects on adiposity/body weight in diet-induced obese mice
Format: in vivo, C57BL/6J mice
Conditions: DIO mice, 5 nmol/kg s.c. twice daily for 31 days
Procedure: Male C57BL/6J mice (Taconic A/S, Denmark) at an age of 5 weeks were maintained on a 12:12 hour light-dark cycle on a high-fat diet (60% of total energy from fat, D12492, Research Diet Inc.) for 20 weeks. All mice (housed 2 per cage) were then mock-treated for a week to acclimatize the animals to handling and injections. Subsequently, the mice were stratified according to body fat mass (measured by magnetic resonance technique) and body weight into 9 groups (n=9-12). Animals were thereafter treated twice daily with subcutaneous injections (5 ml/kg) of vehicle (25 mM phosphate buffer, pH 7.4) or test substances (5 nmol/kg per administration, in equivalent amount of vehicle) for a total of 31 days. The daily injections were given at the start and at the end of the light phase. Body weight, food and water intake were determined daily throughout the study. The data are presented in Table 6 as mean body weight change±S.E.M. S.E.M. is defined as standard error of the mean and was calculated using the formula: S.E.M.=SD/square root (n), where SD is the standard deviation and n the number of observations (in this case animals/group).
Statistical analyses were performed using Graph Pad Prism version 5. The measured parameters were compared using one-way ANOVA followed by Dunnett's multiple comparison test. Differences were considered statistically significant at p<0.05.

SMILES	Mean body weight change [%]
CCCCCCCCCCCCCCCC(=O)N[C@@H](CCC(=O)NCCCC[C@H](NC(=O)[C@H](CO)NC(=O)[C@H](CC(=O)O)NC(=O)[C@H](CC(C)C)NC(=O)[C@H](Cc1ccc(O)cc1)NC(=O)[C@H](CCCCN)NC(=O)[C@H](CO)NC(=O)[C@H](Cc1ccc(O)cc1)NC(=O)[C@H](CC(=O)O)NC(=O)[C@H](CO)NC(=O)[C@@H](NC(=O)[C@H](Cc1ccccc1)NC(=O)[C@@H](NC(=O)CNC(=O)[C@H](CCC(N)=O)NC(=O)C(C)(C)NC(=O)[C@@H](N)Cc1c[nH]cn1)[C@@H](C)O)[C@@H](C)O)C(=O)N[C@@H](C)C(=O)N[C@@H](C)C(=O)N[C@@H](CCC(=O)O)C(=O)N[C@@H](CC(=O)O)C(=O)N[C@@H](Cc1ccccc1)C(=O)N[C@H](C(=O)N[C@@H](CCC(=O)O)C(=O)N[C@@H](Cc1c[nH]c2ccccc12)C(=O)N[C@@H](CC(C)C)C(=O)N[C@@H](CCC(=O)O)C(=O)N[C@@H](CO)C(=O)N[C@@H](C)C(N)=O)C(C)C)C(=O)O [Compound 16, H-H-Aib-QGTFTSDYSKYLDS-K(Hexadecanoyl-isoGlu)-AAEDFVEWLESA-NH2] (H-H[Aib]QGTFTSDYSKYLDSK([γGlu-Palmitoyl])AAEDFVEWLESA-NH2)	−12.2
CCCCCCCCCCCCCCCC(=O)N[C@@H](CCC(=O)NCCCC[C@H](NC(=O)[C@H](CO)NC(=O)[C@H](CC(=O)O)NC(=O)[C@H](CC(C)C)NC(=O)[C@H](Cc1ccc(O)cc1)NC(=O)[C@H](CCCCN)NC(=O)[C@H](CO)NC(=O)[C@H](Cc1ccc(O)cc1)NC(=O)[C@H](CC(=O)O)NC(=O)[C@H](CO)NC(=O)[C@@H](NC(=O)[C@H](Cc1ccccc1)NC(=O)[C@@H](NC(=O)CNC(=O)[C@H](CCC(N)=O)NC(=O)[C@H](CO)NC(=O)[C@@H](N)Cc1c[nH]cn1)[C@@H](C)O)[C@@H](C)O)C(=O)N[C@@H](C)C(=O)N[C@@H](C)C(=O)N[C@@H](Cc1c[nH]cn1)C(=O)N[C@@H](CC(=O)O)C(=O)N[C@@H](Cc1ccccc1)C(=O)N[C@H](C(=O)N[C@@H](CCC(=O)O)C(=O)N[C@@H](Cc1c[nH]c2ccccc12)C(=O)N[C@@H](CC(C)C)C(=O)N[C@@H](CC(C)C)C(=O)N[C@@H](CO)C(=O)N[C@@H](C)C(=O)O)C(C)C)C(=O)O [Compound 2, H-HSQGTFTSDYSKYLDS-K(Hexadecanoyl-isoGlu)-AAHDFVEWLLSA-OH] (H-HSQGTFTSDYSKYLDSK([γGlu-Palmitoyl])AAHDFVEWLLSA-OH)	−5.1
CCCCCCCCCCCCCCCC(=O)N[C@@H](CCC(=O)NCCCC[C@H](NC(=O)[C@H](CCC(=O)O)NC(=O)[C@H](CC(=O)O)NC(=O)[C@H](CC(C)C)NC(=O)[C@H](Cc1ccc(O)cc1)NC(=O)[C@H](CCCCN)NC(=O)[C@H](CO)NC(=O)[C@H](Cc1ccc(O)cc1)NC(=O)[C@H](CC(=O)O)NC(=O)[C@H](CO)NC(=O)[C@@H](NC(=O)[C@H](Cc1ccccc1)NC(=O)[C@@H](NC(=O)CNC(=O)[C@H](CCC(N)=O)NC(=O)C(C)(C)NC(=O)[C@@H](N)Cc1c[nH]cn1)[C@@H](C)O)[C@@H](C)O)C(=O)N[C@@H](C)C(=O)N[C@@H](C)C(=O)N[C@@H](CCCCN)C(=O)N[C@@H](CC(=O)O)C(=O)N[C@@H](Cc1ccccc1)C(=O)N[C@H](C(=O)N[C@@H](CCC(=O)O)C(=O)N[C@@H](Cc1c[nH]c2ccccc12)C(=O)N[C@@H](CC(C)C)C(=O)N[C@@H](CCC(=O)O)C(=O)N[C@@H](CO)C(=O)N[C@@H](C)C(N)=O)[C@@H](C)CC)C(=O)O [Compound 15, H-H-Aib-QGTFTSDYSKYLDE-K(Hexadecanoyl-isoGlu)-AAKDFIEWLESA-NH2]	−10.9
CCCCCCCCCCCCCCCC(=O)N[C@@H](CCC(=O)NCCCC[C@H](NC(=O)[C@H](CCC(=O)O)NC(=O)[C@H](CC(=O)O)NC(=O)[C@H](CC(C)C)NC(=O)[C@H](Cc1ccc(O)cc1)NC(=O)[C@H](CCCCN)NC(=O)[C@H](CO)NC(=O)[C@H](Cc1ccc(O)cc1)NC(=O)[C@H](CC(=O)O)NC(=O)[C@H](CO)NC(=O)[C@@H](NC(=O)[C@H](Cc1ccccc1)NC(=O)[C@@H](NC(=O)CNC(=O)[C@H](CCC(N)=O)NC(=O)C(C)(C)NC(=O)[C@@H](N)Cc1c[nH]cn1)[C@@H](C)O)[C@@H](C)O)C(=O)N[C@@H](CCCNC(=N)N)C(=O)N[C@@H](C)C(=O)N[C@@H](CCCCN)C(=O)N[C@@H](CC(=O)O)C(=O)N[C@@H](Cc1ccccc1)C(=O)N[C@H](C(=O)N[C@@H](CCC(=O)O)C(=O)N[C@@H](Cc1c[nH]c2ccccc12)C(=O)N[C@@H](CC(C)C)C(=O)N[C@@H](CC(C)C)C(=O)N[C@@H](CO)C(=O)N[C@@H](C)C(=O)O)[C@@H](C)CC)C(=O)O [Compound 14, H-H-Aib-QGTFTSDYSKYLDE-K(Hexadecanoyl-isoGlu)-RAKDFIEWLLSA-OH] (H-H[Aib]QGTFTSDYSKYLDEK([γGlu-Palmitoyl])RAKDFIEWLLSA-OH)	−9.5
CCCCCCCCCCCCCCCC(=O)N[C@@H](CCC(=O)NCCCC[C@H](NC(=O)[C@H](CO)NC(=O)[C@H](CC(=O)O)NC(=O)[C@H](CC(C)C)NC(=O)[C@H](Cc1ccc(O)cc1)NC(=O)[C@H](CCCCN)NC(=O)[C@H](CO)NC(=O)[C@H](Cc1ccc(O)cc1)NC(=O)[C@H](CC(=O)O)NC(=O)[C@H](CO)NC(=O)[C@@H](NC(=O)[C@H](Cc1ccccc1)NC(=O)[C@@H](NC(=O)CNC(=O)[C@H](CCC(N)=O)NC(=O)[C@H](CO)NC(=O)[C@@H](N)Cc1c[nH]cn1)[C@@H](C)O)[C@@H](C)O)C(=O)N[C@@H](C)C(=O)N[C@@H](C)C(=O)N[C@@H](CCC(=O)O)C(=O)N[C@@H](CC(=O)O)C(=O)N[C@@H](Cc1ccccc1)C(=O)N[C@H](C(=O)N[C@@H](CCC(=O)O)C(=O)N[C@@H](Cc1c[nH]c2ccccc12)C(=O)N[C@@H](CC(C)C)C(=O)N[C@@H](CC(C)C)C(=O)N[C@@H](CCCNC(=N)N)C(=O)N[C@@H](C)C(N)=O)C(C)C)C(=O)O [Compound 7, H-HSQGTFTSDYSKYLDS-K(Hexadecanoyl-isoGlu)-AAEDFVEWLLRA-NH2] (H-HSQGTFTSDYSKYLDSK([γGlu-Palmitoyl])AAEDFVEWLLRA-NH2)	−8.7
